Source: PMC3509528, “Preliminary Structure-Activity Relationship on Theonellasterol, a New Chemotype of FXR Antagonist, from the Marine Sponge Theonella swinhoei” (Marine Drugs, 2012)

Molecular target: T1, FXR (farnesoid-X-receptor; pCMVSPORT-FXR) (Homo sapiens, UniProt Q96RI1)
T1 construct: gene NR1H4; FXR expressed from pCMVSPORT-FXR, co-transfected with pSG5-RXR in HepG2 cells; p(hsp27)TKLUC luciferase reporter (IR1 element), Renilla normalisation
T1 sequence (Q96RI1 1-486): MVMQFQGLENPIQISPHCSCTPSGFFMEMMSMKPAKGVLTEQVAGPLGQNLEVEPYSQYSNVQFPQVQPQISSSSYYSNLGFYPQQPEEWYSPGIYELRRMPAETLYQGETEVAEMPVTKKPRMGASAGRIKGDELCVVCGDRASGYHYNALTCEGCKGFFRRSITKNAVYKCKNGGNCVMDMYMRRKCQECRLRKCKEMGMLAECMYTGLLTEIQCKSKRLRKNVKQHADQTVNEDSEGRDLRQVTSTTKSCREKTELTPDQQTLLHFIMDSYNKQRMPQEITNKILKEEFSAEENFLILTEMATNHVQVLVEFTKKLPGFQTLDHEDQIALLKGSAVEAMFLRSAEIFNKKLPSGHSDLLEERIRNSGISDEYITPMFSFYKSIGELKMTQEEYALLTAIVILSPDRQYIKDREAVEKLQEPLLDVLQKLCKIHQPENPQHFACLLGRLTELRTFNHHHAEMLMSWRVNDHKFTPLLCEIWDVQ
T1 sequence (P19793 1-462 partner): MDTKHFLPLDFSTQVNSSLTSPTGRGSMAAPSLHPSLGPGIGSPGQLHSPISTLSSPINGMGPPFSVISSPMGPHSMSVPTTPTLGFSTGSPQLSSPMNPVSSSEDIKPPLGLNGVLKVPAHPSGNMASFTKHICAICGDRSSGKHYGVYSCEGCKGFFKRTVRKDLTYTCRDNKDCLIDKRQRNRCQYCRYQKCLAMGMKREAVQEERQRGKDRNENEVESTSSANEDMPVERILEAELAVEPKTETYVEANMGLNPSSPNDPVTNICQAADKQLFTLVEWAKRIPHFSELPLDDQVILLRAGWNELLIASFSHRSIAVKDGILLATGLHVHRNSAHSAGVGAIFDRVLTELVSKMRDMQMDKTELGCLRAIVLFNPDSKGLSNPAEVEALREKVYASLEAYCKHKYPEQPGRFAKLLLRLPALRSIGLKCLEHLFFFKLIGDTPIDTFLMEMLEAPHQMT
Assay: luciferase reporter transactivation assay in transfected HepG2, antagonist mode
Format: cell-based

EC50: ~50 µM
Structure (SMILES): C=C1[C@@H](O)CC[C@@]2(C)[C@H]1CCC1=C3CC[C@H]([C@H](C)CC[C@H](CC)C(C)C)[C@@]3(C)CC[C@@H]12 [compound 1, theonellasterol]
